pIC50: −log10 of the molar value. Like-named read-outs stand apart in the source and are kept apart here.
Assays:
SARS-CoV-2 [1] = format: cell-based; conditions: VeroE6/TMPRSS2, 48 hr
SARS-CoV-2 [2] = assay: microbe, parasite or virus in culture; conditions: for IC90: read-out: SARS-CoV-2 RNA IC90
SARS-CoV-2 [3] = format: cell-based
SARS-CoV-2 [4] = assay: Chemical screening of 306 approved drugs by cytopathic effect assay; format: cell-based
SARS-CoV-2 [5] = tested on: SARS-CoV-2
in vitro = conditions: African green monkey
[6] = expected in human lung
SARS-CoV-2 [7] = assay: Viral N protein immunofluorescence in Calu-3 cells; format: cell-based
clinical = conditions: human, po, 500 mg
SARS-CoV-2 main protease = SARS-CoV-2 main protease (Severe acute respiratory syndrome coronavirus 2, UniProt P0DTD1); assay: biochemical
[8] = patients, 500 mg NFV orally; ref Markowitz et al., 1998; read-out: serum Cmax; cited from earlier work
SARS-CoV-2 [9] = format: cell-based; remark: listed apart in the source
SARS-CoV = conditions: ref Liu et al., 2005, Wu et al., 2004, Yamamoto et al.; cited from earlier work
SARS-CoV-2 [10] = assay: microbe, parasite or virus in culture; format: cell-based
SARS-CoV-2 [11] = assay: Virus-cell binding assay at 4°C; format: cell-based
[12] = Severe acute respiratory syndrome coronavirus 2, VeroE6/TMPRSS2, 24 h, read-out: SARS-CoV-2 RNA IC50
[13] = Severe acute respiratory syndrome coronavirus 2, VeroE6/TMPRSS2, 24 h
[14] = Severe acute respiratory syndrome coronavirus 2, read-out: IC50 (Hill function fit)
[15] = VeroE6/TMPRSS2, 24 hr, LPV 16 μM, CLQ 16 μM, RDV 20 μM, CEP 8 μM, NFV 4 μM
[16] = Table S1, Single-drug treatment
[17] = secreted viral RNA 24 hr, RDV 15 μM, CLQ 15 μM, CEP 8.2 μM, NFV 4 μM

Row | Molecule | virus-induced cytopathicity (SARS-CoV-2 [1]) | pIC50 (SARS-CoV-2 [2]; [12]) | IC90 (SARS-CoV-2 [2]; [13]) [µM] | pIC50 (SARS-CoV-2 [2]; [14]) | N protein expression (SARS-CoV-2 [3]; [15]) | screening outcome (hit = cell survival more than 20-fold of the control) (SARS-CoV-2 [4]) | antiviral activity on viral RNA (SARS-CoV-2 [5]) | m, slope of the dose-response curve (Hill coefficient) (SARS-CoV-2 [5]; [16]) | CC50 (in vitro) [µM] | also measured
1 | Cc1cccc(C)c1OCC(=O)N[C@@H](Cc1ccccc1)[C@@H](O)C[C@H](Cc1ccccc1)NC(=O)[C@H](C(C)C)N1CCCNC1=O [LPV, lopinavir] | reduced virus-induced cytopathicity | 5.51 | 5.43 | 5.44 | significantly reduced N protein expression | identified as hits | inhibited viral RNA | 3.852 | 54.9 | –
2 | Cc1c(O)cccc1C(=O)N[C@@H](CSc1ccccc1)[C@H](O)CN1C[C@H]2CCCC[C@H]2C[C@H]1C(=O)NC(C)(C)C [NFV, nelfinavir] | greatest anti-cytopathic activity | 6.11 | 1.18 | 6.12 | significantly reduced N protein expression | identified as hits | – | 5.079 | > 64 | Degradation rate k [6]: 4.89 day⁻¹; SARS-CoV-2 proliferation in Calu-3 cells (N protein) (SARS-CoV-2 [7]): inhibit SARS-CoV-2 proliferation; Cmax (clinical): 9.32 µM; pIC50 (SARS-CoV-2 main protease): 4.43; Cmax [8]: 6.9 µM; step of life cycle inhibited (time-of-addition) (SARS-CoV-2 [9]; [17]): clearly inhibited the post-entry process; replication of SARS-CoV (SARS-CoV): inhibit the replication; pIC50 (SARS-CoV-2 [10]; [14]): 5.88; m, slope of the dose-response curve (Hill coefficient) (SARS-CoV-2 [10]; Table S1, Combination treatment experiment): 4.043; viral RNA, % of untreated control (SARS-CoV-2 [10]; […], CEP 3.20 μM, NFV 2.24 μM, alone or combined): 5.8%; viral RNA levels, % of the untreated control infections (SARS-CoV-2 [5]): 0.001–0.01%; window (CC50/IC50) (SARS-CoV-2 [5]): > 70 fold
3 | CCOC(=O)O[C@]1(C(=O)OCCl)CC[C@H]2[C@@H]3CCC4=CC(=O)C=C[C@]4(C)[C@H]3[C@@H](O)C[C@@]21C [Loteprednol] | – | – | – | – | – | identified as hits | – | – | – | –
4 | CCC(CC)COC(=O)[C@H](C)N[P@](=O)(OC[C@H]1O[C@@](C#N)(c2ccc3c(N)ncnn23)[C@H](O)[C@@H]1O)Oc1ccccc1 [RDV, Remdesivir] | – | 5.80 | 3.24 | 5.80 | – | – | inhibited viral RNA | – | > 64 | step of life cycle inhibited (time-of-addition) (SARS-CoV-2 [9]): negligible effect on virus entry; N protein expression (SARS-CoV-2 [3]): significantly reduced N protein expression; m, slope of the dose-response curve (Hill coefficient) (SARS-CoV-2 [5]): 3.048
5 | CO[C@H]1C[C@@H]2CC[C@@H](C)[C@@](O)(O2)C(=O)C(=O)N2CCCC[C@H]2C(=O)O[C@H]([C@H](C)C[C@@H]2CC[C@@H](O)[C@H](OC)C2)CC(=O)[C@H](C)/C=C(\C)[C@@H](O)[C@@H](OC)C(=O)[C@H](C)C[C@H](C)/C=C/C=C/C=C/1C [Rapamycin] | – | – | – | – | – | identified as hits | – | – | – | –
6 | CCN(CC)CCCC(C)Nc1ccnc2cc(Cl)ccc12 (stereo not drawn) [CLQ, chloroquine] | reduced virus-induced cytopathicity | 5.88 | 3.97 | 5.88 | significantly reduced N protein expression | – | inhibited viral RNA | 1.984 | > 64 | SARS-CoV-2 binding to cells (cell-bound viral RNA) (SARS-CoV-2 [11]): negligible effect; step of life cycle inhibited (time-of-addition) (SARS-CoV-2 [9]; [17]): activity in the early stages of infection
7 | heparin | – | – | – | – | – | – | – | – | – | SARS-CoV-2 binding to cells (cell-bound viral RNA) (SARS-CoV-2 [11]): significantly blocked SARS-CoV-2 particle attachment
8 | NC(=O)c1nc(F)c[nH]c1=O [FPV, favipiravir] | – | < 4.19 | > 64 | – | – | – | negligible antiviral activity | – | > 64 | –

Reference: paper PMC7997640, “Potential anti-COVID-19 agents, cepharanthine and nelfinavir, and their usage for combination treatment” (iScience, 2021)
